Experimental data: patent publication US20230059785A1, “METHODS FOR ENHANCING T CELLS USING VENETOCLAX” (University Health Network, priority 2020, published 2023)

How the values were obtained:
[1] = system: primary AML patient samples; type: cell-based, human
Experimental: (§1) FIG. 2. Venetoclax enhances T cell mediated cytotoxicity against AML in vitro. (A) To validate the finding from the drug screening, in vitro killing assay was conducted with DNT cells untreated or pretreated with various concentrations of Ven (50 nM, 100 nM, 200 nM, 400 nM) for overnight against AML cell lines, OCI-AML2, OCI-AML3, and KG1a. The data is representative of four biological replicates. (B) In vitro cytotoxicity assay using DNT cells pretreated with 400 nM Ven as effectors against primary AML patient samples (n=17). (C) To determine the activity of DNT cells with or without Ven-treatment against leukemia initiating cells, untreated AML or AML treated with untreated or Ven-treated DNT cells were seeded at 10^3 cells per ml in a methylcellulose-based colony forming assay, and the number of colonies formed were determined 10 days after. The experiment was done with OCI-AML2 and KG1a, as well as patient samples 140372, 100857, 110162 and 141065. […] The experiment was done using DNT cells from two different donors (UPN119 and UPN38). […] Subsequently, they were cultured with OCI-AML2 at 1:1, 2:1, or 4:1 DNT:AML ratio, and the viability of AML cells were measured by Annexin V staining and flow cytometry. […]
FIG. 11. […] The increase in DNT-mediated cytotoxicity by Venetoclax treatment was determined against each patient sample type. […]

DNTs [2] = assay: Viability of DNTs treated with Venetoclax (Annexin V staining and flow cytometry); type: cell-based, human; conditions: Venetoclax 18 h
Experimental: FIG. 10. […] (A) Viability of DNTs and OCI-AML2 cells treated with 400 nM Venetoclax for 18 hours was determined by Annexin V staining and flow cytometry. (B and C) DNTs were treated with increasing concentrations of Venetoclax for 18 h. Subsequently, their viability (B) and cytotoxicity (C) against OCI-AML2 and two primary AML cells (090765 and 110162) were determined. ANOVA was used for statistics. ****p<0.0001.

DNT cells = assay: Glycolysis, glycolytic capacity and oxygen consumption rate of DNT cells; type: cell-based, human
[3] = system: AML cell lines, OCI-AML2, OCI-AML3, and KG1a; assay: In vitro killing assay with Ven-pretreated Tconv cells against AML cell lines; type: cell-based, human; conditions: Ven 25-400 nM
Experimental: FIG. 4(A). Venetoclax enhances anti-leukemic activity of CD4^+ or CD8^+ conventional T cells. Ex vivo expanded Tconv cells untreated or treated with various concentrations of Ven (25 nM, 50 nM, 100 nM, 200 nM, or 400 nM), were used as effector cells against AML cell lines, OCI-AML2, OCI-AML3, and KG1a. The result shown represents four biological replicates. FIG. 4(B).
While treating DNT cells with Ven to enhance their anti-leukemic activity may be beneficial for DNT-therapy, experiments were performed to determine whether Ven has an effect on the anti-leukemic activity of CD4^+ or CD8^+ conventional T (Tconv) cells as Tconv cells are more wildly used as cancer immunotherapy clinically. To this end, polyclonally activated Tconv cells were pre-treated with different concentrations of Ven prior to their co-culture with […]

OCI-AML2 [4] = assay: Time course of Venetoclax treatment of DNT and Tconv cells, cytotoxicity against OCI-AML2; type: cell-based, human; conditions: DNTs and Tconv cells; Venetoclax 100 nM and 400 nM; 4 hours up to 3 days
Experimental: (§2) Venetoclax rapidly and directly increases cytotoxicity of T cells against AML. DNT (top panels) and Tconv cells (bottom panels) untreated or treated with Venetoclax (100 nM and 400 nM) for 4 h, 18 h, and 3 days. Subsequently, their cytotoxicity against OCI-AML2 was determined. Data represent the mean ±SEM of results from four different donor T cells. FIG. 4(C). DNT and Tconv cells untreated or treated with Venetoclax (100 nM or 400 nM) for 4 hours. Subsequently, their viability was determined. Data represent the mean ±SEM of results from four different donor T cells.
(§3) To elucidate the underlying mechanism by which Ven-mediates increased cytotoxicity of T cells, the expression of T cell activation markers and effector molecules on DNT cells with or without Ven treatment was compared. […] Thus, Venetoclax directly activates effector T cells to increase their cytotoxicity without depleting naïve or inhibitory T cell subsets.

[5] = system: human AML cell line, OCI-AML2; assay: Drug screening assay: DNT cells pretreated with 269 approved drugs, then used as effectors against AML; type: cell-based; conditions: DNT cells treated at 400 nM overnight, washed, cultured with AML cells two hours; library of 269 drugs
Experimental: FIG. 1. Drug screening assay identifies Venetoclax as the top hit for enhancing cytotoxicity of T cells against AML. Schematic diagram of drug screening assay done to identify clinically approved drugs that can be used in combination with DNT cells to yield in synergistic anti-tumor activity. DNT cells were treated with 269 different clinically approved drugs at 400 nM for overnight. Subsequently, compound-treated cells were washed and then cultured with AML cells for two-hours.
To identify molecules that increase the potency of T cell mediated cytotoxicity against AML, ex vivo expanded DNT cells were used as a surrogate for anti-leukemic T cells and pretreated with a compound library of 269 drugs approved for various clinical uses. Subsequently, compound-treated cells were used as effectors against human AML cell line, OCI-AML2.

[6] = system: autologous and allogeneic PBMCs; assay: Cytotoxicity of DNT cells against normal blood cells; type: cell-based, human; conditions: PBMCs from healthy donors
Excerpt: To determine if Ven increases the cytotoxicity of DNT cells against normal blood cells, autologous and allogeneic PBMCs from healthy donors were used as targets.

[7] = system: AML cell lines, OCI-AML2, OCI-AML3, and KG1a; assay: In vitro killing assay with Ven-pretreated DNT cells against AML cell lines; type: cell-based, human; conditions: Ven 50, 100, 200, 400 nM overnight
Experimental: as §1, with “UPN38). (E) Correlation between the susceptibility of AML to DNT cells and the degree of increase in DNT cell-mediated cytotoxicity by Ven treatment.” for “UPN38).”

DNT and Tconv cells = assay: Viability of DNT and Tconv cells after Venetoclax treatment; type: cell-based, human; conditions: Venetoclax 100 nM or 400 nM, 4 hours
Experimental: as §2, §3

[8] = system: DNTs treated with 400 nM Ven; assay: Co-treatment of DNT cells with Venetoclax and ROS scavenger NAC; type: cell-based, human
Experimental: (C) To determine the functional relevance of increased ROS level in Ven treated DNTs, ROS level in DNTs treated with 400 nM Ven in the presence of various concentrations of ROS-scavenger, N-acetylcysteine (NAC), and these cells were used as effector cells against AML during an in vitro killing assay. The result shown is representative of three independent experiments. […] (H-K) DNT (H and I) or Tconv cells (J and K) were treated with 0 nM, 100 nM, or 400 nM Venetoclax for 4 hours, 18 hours and 2 days. Cells were stained with CellROX (H and J) or MitoSOX (I and K). MFI of cellular or mitochondrial (mt) ROS was measured by flow cytometry. Data represent the mean ±SEM of results from four different donor T cells. (L) DNTs treated with 400 nM Venetoclax with or without 2 mM NAC for 18 hours. […] MFI of CD25 and CD69 were measured by flow cytometry. Experiments were done in triplicates, and the data shown is representative of two independent experiments done using DNTs from two donors. (M) DNT cells were treated with 400 nM Venetoclax for 18 hours.

OCI-AML2 [9] = assay: DNT cells pre-treated with Bcl-2 family protein inhibitors, used as effectors against OCI-AML2; conditions: overnight pre-treatment, different concentrations
Excerpt: FIG. 5. […] (A) DNT cells were pre-treated with different concentrations of Obatoclax, ABT-737, or Venetoclax overnight and were used as effector cells against OCI-AML2. […] (C) Expression of Bcl-xL and Bcl-2 on ex vivo expanded DNT cells from three donors (UPN38, UPN108, and UPN134) and AML cell lines, OCI-AML2, TEX, NB4, and K562 determined by Western blot. Tubulin was used as a loading control.
As Bcl-2 is well-known to protect cells from apoptosis, one would expect that inhibiting this pathway would lead to increased T cell apoptosis and dampened T cell function.

DNTs [10] = assay: Effect of other ROS-inducing reagents on DNT ROS level and viability; conditions: 18 hours; cytarabine 0-3 μM, antimycin 0-250 nM, daunorubicin 0-10 μM
Experimental: (§4) FIG. 15. Effect of other known ROS-inducing reagents on DNT viability, ROS level, and cytotoxicity against AML. DNTs were treated with increasing concentrations of cytarabine (0-3 μM), antimycin (0-250 nM) or daunorubicin (0-10 μM) for 18 hours. Subsequently, the level of cellar ROS in the DNTs (A), DNT viability (B), and cytotoxicity against OCI-AML2 (C) were determined.
(§5) To determine the effect of other ROS-inducing agents on DNT-mediated cytotoxicity, DNTs were treated with increasing concentrations of cytarabine, daunorubicin, and antimycin.

OCI-AML2 [11] = assay: Effect of other ROS-inducing reagents on DNT cytotoxicity against OCI-AML2; conditions: 18 hours; cytarabine 0-3 μM, antimycin 0-250 nM, daunorubicin 0-10 μM
Experimental: as §4, §5

## CC1(C)CCC(CN2CCN(c3ccc(C(=O)NS(=O)(=O)c4ccc(NCC5CCOCC5)c([N+](=O)[O-])c4)c(Oc4cnc5[nH]ccc5c4)c3)CC2)=C(c2ccc(Cl)cc2)C1 [Venetoclax]
[1]
  correlation between susceptibility of AML to DNT cells and degree of increase in DNT cell-mediated cytotoxicity by Ven treatment: clear inverse correlation
DNTs [2]
  viability of DNTs: without reducing the viability of the DNTs
DNT cells
  glycolysis, glycolytic capacity, and basal oxygen consumption rate of DNT cells: no significant effect
[3]
  cytotoxicity of Ven-pretreated Tconv cells against AML cell lines: significant enhancement of cytotoxicity of Tconv cells
OCI-AML2 [4]
  T cell cytotoxicity against AML after different treatment times: increased T cell cytotoxicity against AML
[5]
  change in cytotoxicity mediated by DNT cells against AML cells relative to untreated DNT cells: increased the cytotoxicity of DNT cells the most
[6]
  killing of autologous and allogeneic PBMCs by Ven-treated DNT cells: insignificant degree of killing
[7]
  cytotoxicity of Ven-pretreated DNT cells against AML cell lines: increased cytotoxicity of DNT cells against three different AML cell lines, AML2-OCI, AML3-OCI, and KG1a, in a dose-dependent manner
DNT and Tconv cells
  T cell viability: without changing the T cell viability

## CC(=O)N[C@@H](CS)C(=O)O [NAC, N-acetylcysteine]
[8]; 400 nM Venetoclax with 2 mM NAC, 18 hours
  upregulation of activation markers (CD25 and CD69) by Venetoclax: blocked the upregulation of activation markers
[8]; co-treatment with 400 nM Ven
  DNT cell-mediated cytotoxicity against AML: abrogated the effect of Venetoclax on DNT cell-mediated cytotoxicity against AML
  cellular ROS level in Venetoclax-treated DNT cells: reduced the cellular ROS level

## COC1=CC(c2cc3ccccc3[nH]2)=N/C1=C\c1[nH]c(C)cc1C [Obatoclax]
OCI-AML2 [9]
  effect on DNT cells and their cytotoxicity against OCI-AML2: induced DNT cell death or inhibited their cytotoxicity

## Nc1ccn([C@@H]2O[C@H](CO)[C@@H](O)[C@@H]2O)c(=O)n1 [cytarabine]
DNTs [10]
  level of cellular ROS in DNTs: Increased ROS levels

## antimycin
DNTs [10]
  DNT viability: no to little loss of viability
  level of cellular ROS in DNTs: Increased ROS levels
OCI-AML2 [11]
  DNT-mediated cytotoxicity against OCI-AML2: did not enhance the cytotoxicity of DNTs

## COc1cccc2c1C(=O)c1c(O)c3c(c(O)c1C2=O)C[C@@](O)(C(C)=O)C[C@@H]3O[C@H]1C[C@H](N)[C@H](O)[C@H](C)O1 [daunorubicin]
DNTs [10]
  level of cellular ROS in DNTs: lower ROS level
